pEC50: −log10 of the molar value. Bounds are passed on as bounds.

The test has as its system SKBr3 cell Hsp90. Nature of the test: EC50 for Hsp90 binding in SKBr3 cell lysate. The conditions noted are these: read-out: EC50, binding to SKBr3 cell Hsp90.
Usually pEC50 stands for the negative decadic logarithm of the EC50, by convention in mol/L. In the case of `CC(C)NCCCn1c(Sc2cc3c(cc2C2C=CCC2)OCO3)nc2c(N)ncnc21` (stereo not shown) [Compound 4I-12, 8-(6-(cyclopent-2-enyl)benzo[d][1,3]dioxol-5-ylthio)-9-(3-(isopropylamino)propyl)-9H-purin-6-amine], the pEC50 was 6.40.

With `COc1ccc(-c2cc[nH]n2)c(Sc2nc3c(N)ncnc3n2CCNCC(C)(C)C)c1` [Compound 7E-6, 8-(5-methoxy-2-(1H-pyrazol-3-yl)phenylthio)-9-(2-(neopentylamino)ethyl)-9H-purin-6-amine], the pEC50 is 7.49.

In the case of `CC(C)NCCCn1c(Sc2cc3c(cc2-c2ccccc2)OCO3)nc2c(N)ncnc21` [Compound 4A-1, 9-(3-(isopropylamino)propyl)-8-(6-phenylbenzo[d][1,3]dioxol-5-ylthio)-9H-purin-6-amine], the pEC50 was 6.19.

With `CC(C)NCCCn1c(Sc2cc3c(cc2-c2ccc[nH]2)OCO3)nc2c(N)ncnc21` [Compound 4H-1, 8-(6-(1H-pyrrol-2-yl)benzo[d][1,3]dioxol-5-ylthio)-9-(3-(isopropylamino)propyl)-9H-purin-6-amine], the pEC50 is 6.13.

Take `Nc1ncnc2c1nc(Sc1cc3c(cc1I)OCCO3)n2CCCn1ccnc1` [Compound 5A-4, 9-(3-(1H-imidazol-1-yl)propyl)-8-(7-iodo-2,3-dihydrobenzo[b][1,4]dioxin-6-ylthio)-9H-purin-6-amine]: the pEC50 was 7.20.

As for `CC(C)NCCCn1c(Sc2cc3c(cc2-c2cc[nH]c2)OCO3)nc2c(N)ncnc21` [Compound 4H-3, 8-(6-(1H-pyrrol-3-yl)benzo[d][1,3]dioxol-5-ylthio)-9-(3-(isopropylamino)propyl)-9H-purin-6-amine], the pEC50 was 6.79.

Turning to `CC(C)(C)CNCCN1C(Sc2cc3c(cc2I)OCCO3)=NC2C(N)=NC=NC21` (stereo not shown) [Compound 5A-3, 8-(7-Iodo-2,3-dihydrobenzo[b][1,4]dioxin-6-ylthio)-9-(2-(neopentylamino)ethyl)-5,9-dihydro-4H-purin-6-amine], the pEC50 was 7.46.

With `CC(C)NCCCn1c(Sc2cc3c(cc2-c2ccco2)OCCO3)nc2c(N)ncnc21` [Compound 5B-1, 8-((7-(furan-2-yl)-2,3-dihydrobenzo[b][1,4]dioxin-6-yl)thio)-9-(3-(isopropylamino)propyl)-9H-purin-6-amine], the pEC50 is 8.16.

Regarding `CC(C)NCCCn1c(Sc2cc3c(cc2-c2cnoc2)OCO3)nc2c(N)ncnc21` [Compound 4C-10, 9-(3-(isopropylamino)propyl)-8-(6-(isoxazol-4-yl)benzo[d][1,3]dioxol-5-ylthio)-9H-purin-6-amine], the pEC50 was under 6.52.

On to `COc1ccc(-c2cccs2)c(Sc2nc3c(N)ncnc3n2CCNCC(C)(C)C)c1` [Compound 7D-3, 8-(5-methoxy-2-(thiophen-2-yl)phenylthio)-9-(2-(neopentylamino)ethyl)-9H-purin-6-amine], for which the pEC50 is 6.62.

As for `CC(C)NCCCn1c(Sc2cc3c(cc2-c2cc(C(F)(F)F)cc(C(F)(F)F)c2)OCO3)nc2c(N)ncnc21` [Compound 4A-3, 8-(6-(3,5-bis(trifluoromethyl)phenyl)benzo[d][1,3]dioxol-5-ylthio)-9-(3-(isopropylamino)propyl)-9H-purin-6-amine], the pEC50 is under 4.00.

Take `CC(C)NCCCn1c(Sc2cc3c(cc2-c2ccc(Br)cc2)OCO3)nc2c(N)ncnc21` [Compound 4A-7, 8-(6-(4-bromophenyl)benzo[d][1,3]dioxol-5-ylthio)-9-(3-(isopropylamino)propyl)-9H-purin-6-amine]: the pEC50 was 5.86.

As for `CC(C)(C)CNCCn1c(Sc2cc3c(cc2-c2ccoc2)OCO3)nc2c(N)ncnc21` [Compound 4C-14, 8-(6-(furan-3-yl)benzo[d][1,3]dioxol-5-ylthio)-9-(2-(neopentylamino)ethyl)-9H-purin-6-amine], the pEC50 was 8.00.

Turning to `CC(C)NCCCn1c(Sc2cc3c(cc2-c2ccoc2)OCO3)nc2c(N)ncnc21` [Compound 4C-2, 8-(6-(furan-3-yl)benzo[d][1,3]dioxol-5-ylthio)-9-(3-(isopropylamino)propyl)-9H-purin-6-amine], the pEC50 is 7.07.

In the case of `CC(C)NCCCn1c(Sc2cc3c(cc2-c2ccc(C(C)(C)C)cc2)OCO3)nc2c(N)ncnc21` [Compound 4A-2, 8-(6-(4-tert-butylphenyl)benzo[d][1,3]dioxol-5-ylthio)-9-(3-(isopropylamino)propyl)-9H-purin-6-amine], the pEC50 is 5.20.

Regarding `CC(C)NCCCn1c(Sc2cc3c(cc2-c2ncco2)OCO3)nc2c(N)ncnc21` [Compound 4C-38, 9-(3-(isopropylamino)propyl)-8-(6-(oxazol-2-yl)benzo[d][1,3]dioxol-5-ylthio)-9H-purin-6-amine], the pEC50 was 8.10.

With `CC(C)(C)CNCCn1c(Sc2cc3c(cc2-c2cc[nH]n2)OCO3)nc2c(N)ncnc21` [Compound 4G-9, 8-(6-(1H-pyrazol-3-yl)benzo[d][1,3]dioxol-5-ylthio)-9-(2-(neopentylamino)ethyl)-9H-purin-6-amine], the pEC50 is 8.26.

On to `CC(C)(C)CNCCn1c(Sc2cc3c(cc2-c2cccs2)OCO3)nc2c(N)ncnc21` [Compound 4D-3, 9-(2-(neopentylamino)ethyl)-8-(6-(thiophen-2-yl)benzo[d][1,3]dioxol-5-ylthio)-9H-purin-6-amine], for which the pEC50 was 7.73.

`CC(C)NCCCn1c(Sc2cc3c(cc2-c2cc[nH]n2)OCO3)nc2c(N)ncnc21` [Compound 4G-6, 8-(6-(1H-pyrazol-3-yl)benzo[d][1,3]dioxol-5-ylthio)-9-(3-(isopropylamino)propyl)-9H-purin-6-amine]: the pEC50 was 8.26.

These data come from US10172863B2, “Purine derivatives useful as HSP90 inhibitors” (Sloan-Kettering Institute for Cancer Research, priority 2009, dated 2019).
